Source: patent US6268478A, “Intracellular vitamin D binding protein” (Cedars-Sinai Medical Center, priority 1997, dated 2001)

Target: IDBP (Saguinus oedipus, UniProt Q9N1U2)
Assay: Competitive displacement of [3H]25-OHD3 from IDBP in unfractionated 100,000×g supernatant extracts of B95-8 cells (competitive protein binding assay, dextran-coated charcoal)
Parameters: post-nuclear 100,000xg supernatant of B95-8 marmoset lymphoblasts and partly purified column fractions; species or system Callithrix jacchus (common marmoset)
Details: for RBI (Relative Binding Index): relative ability of maximally effective concentration to displace [3H]25-OHD3, 25-OHD3 assigned 100, unfractionated 100,000×g supernatant of B95-8 cells; for binding / displacement of [3H]25-OHD3 by vitamin D2 metabolites and synthetic analogues (FIG. 2B): unfractionated B95-8 extracts, 4 nM [3H]25-OHD3; for ability to competitively displace [3H]25-OHD3 binding (FIG. 1A): 100 nM competitor, 2 nM [3H]25-OHD3; for competition of non-vitamin D steroids and bioactive lipids with 25-OHD3 for binding: crude post-nuclear / 100,000×g supernatant extracts of B95-8 cells
Text: Culture and Extraction of B95-8 Cells. The B-lymphoblastoid cell line B95-8 was obtained from the American Type Culture Collection (ATCC, Manassas, Va.). This cell line was established by EBV transformation of blood leukocytes from the vitamin D-resistant new world primate, Callithrix jacchus (common marmoset). The cell line was maintained in RPMI-1640 medium (Irvine Scientific, Irvine, Calif.) routinely supplemented with 10% fetal calf serum (FCS; Gemini BioProducts, Calabasas, Calif.), 100 units/ml penicillin, 100 μg/ml streptomycin, 2 mM L-glutamine (both from Gibco-BRL, Grand Island, N.Y.) in an atmosphere of 95% air-5% CO2.
Confluent cultures were harvested by agitation to dislodge clumps of lymphoblasts that were weakly adherent to the plastic flask. Harvested cells were pelleted and washed twice in ice cold phosphate-buffered saline (PBS; 20 mM Na2 HPO4 and 150 mM NaCl, pH 7.2). The pelleted cells were then resuspended in ETD buffer (1 mM EDTA, 10 mM Tris-HCl, 5 mM dithiothreitol, pH 7.4) containing 1 mM phenylmethylsulfonylflouride and homogenized by Polytron on ice in five 15-second bursts. Nuclei with associated nuclear steroid receptor proteins, were pelleted at 4,000×g for 30 minutes at 4° C. The post-nuclear supernatant of this spin was then subjected to high-speed centrifugation at 100,000×g for 1 hour at 4° C. The resulting "100,000×g supernatant" was either aliquoted and stored at […] for further study, used in competitive ligand binding analyses, or subjected to further purification as described below in Example II.
Ligand Binding Analyses. The ability of the unfractionated 100,000×g supernatant extracts of B95-8 cells and individual column […] of increasing concentrations of radioinert compounds (see Table I) was performed by competitive protein binding assay as previously described in Gacad et al. Bone Min. Res. 8:27-35 (1993).
[…] […] […] […] The binding assay conditions were the same as those stated above except that specific binding was determined in ETD-0.3 M Na2 HPO4 buffer (pH 6.8).

Chain of IDBP (Q9N1U2 whole entry): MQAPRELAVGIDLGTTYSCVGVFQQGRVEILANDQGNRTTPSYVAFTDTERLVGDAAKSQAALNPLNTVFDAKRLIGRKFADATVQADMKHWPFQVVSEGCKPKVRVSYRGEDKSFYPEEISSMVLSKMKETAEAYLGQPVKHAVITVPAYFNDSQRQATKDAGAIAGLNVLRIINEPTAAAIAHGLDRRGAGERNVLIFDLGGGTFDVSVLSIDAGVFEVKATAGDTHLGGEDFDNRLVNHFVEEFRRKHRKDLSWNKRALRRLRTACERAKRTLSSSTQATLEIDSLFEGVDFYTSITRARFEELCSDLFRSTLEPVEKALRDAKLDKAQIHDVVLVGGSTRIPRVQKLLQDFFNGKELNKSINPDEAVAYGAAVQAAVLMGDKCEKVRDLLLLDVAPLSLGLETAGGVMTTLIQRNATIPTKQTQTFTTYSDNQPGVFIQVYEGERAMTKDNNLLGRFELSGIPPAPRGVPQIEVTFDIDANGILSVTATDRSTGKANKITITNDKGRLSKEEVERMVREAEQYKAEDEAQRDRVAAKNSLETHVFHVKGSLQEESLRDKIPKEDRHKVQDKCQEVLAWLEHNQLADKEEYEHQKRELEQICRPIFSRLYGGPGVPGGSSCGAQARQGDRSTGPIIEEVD

Compound | RBI (Relative Binding Index) | also measured
CC#C[C@]1(O)CC[C@H]2[C@@H]3CCC4=CC(=O)CCC4=C3[C@@H](c3ccc(N(C)C)cc3)C[C@@]21C [RU486] | 0 | –
CC(C)CCC[C@@H](C)[C@H]1CC[C@H]2[C@@H]3CC=C4C[C@@H](O)CC[C@]4(C)[C@H]3CC[C@]12C [Cholesterol] | 0 | –
C=C1/C(=C\C=C2/CCC[C@]3(C)[C@@H]([C@@H](C)OCCCC(O)(CC)CC)CC[C@@H]23)C[C@@H](O)C[C@@H]1O [KH1060] | 0 | binding / displacement of [3H]25-OHD3 by vitamin D2 metabolites and synthetic analogues (FIG. 2B): none of the C-1-hydroxylated nonhypercalcemic analogues MC903, EB1089 and KH1060 (FIG. 2A) were able to displace [^3 H]25-OHD3 binding
C=C1/C(=C\C=C2/CCC[C@]3(C)[C@@H]([C@H](C)CCC(O)C(C)(C)O)CC[C@@H]23)C[C@@H](O)CC1O (stereo partly shown) [1,24,25-(OH)3D3] | 36 | ability to competitively displace [3H]25-OHD3 binding (FIG. 1A): significantly decreased effective competitive binding; displacement of 25-OHD3 (competitor at 10^-7 M, 0.1 µM): 20%; displacement of 25-OHD3 at lower concentrations (competitor concentrations below 10^-7 M): no apparent displacement at lower concentrations
C[C@]12C[C@H](O)[C@H]3[C@@H](CCC4=CC(=O)CC[C@@]43C)[C@@H]1CC[C@@H]2C(=O)CO [Corticosterone (B), Corticosterone] | 0 | –
C=C1CC[C@H](O)C/C1=C/C=C1\CCC[C@]2(C)[C@@H]([C@H](C)CCCC(C)(O)CO)CC[C@@H]12 (stereo partly shown) [25,26-(OH)2D3] | 70 | ability to competitively displace [3H]25-OHD3 binding (FIG. 1A): roughly equivalent in their ability to competitively inhibit
CC1=C(/C=C/C(C)=C/C=C/C(C)=C/C(=O)O)C(C)(C)CCC1 [All-trans Retinoic acid] | 0 | –
C[C@]12CC[C@H]3[C@@H](CCC4=CC(=O)CC[C@@]43C)[C@@H]1CC[C@@H]2C(=O)CO [Deoxycorticosterone (DOC), Deoxycorticosterone] | 0 | –
C[C@]12CCC(=O)C[C@@H]1CC[C@@H]1[C@@H]2CC[C@]2(C)[C@@H](O)CC[C@@H]12 [5-Dihydroxytestosterone] | 0 | competition of non-vitamin D steroids and bioactive lipids with 25-OHD3 for binding: none of the six steroid precursor molecules, glucocorticoids, mineralocorticoids, or the major intracellular metabolite of testosterone, 5-dihydrotestosterone, were capable ligands
C=C1/C(=C\C=C2/CCC[C@]3(C)[C@@H]([C@H](C)CCCC(C)C)CC[C@@H]23)C[C@@H](O)C[C@@H]1O [1-OHD3] | 0 | ability to competitively displace [3H]25-OHD3 binding (FIG. 1A): incapable of displacing [^3 H]25-OHD3
C[C@]12CC[C@@H]3c4ccc(O)cc4CC[C@H]3[C@@H]1CC[C@@H]2O [17β-Estradiol] | 33 | competition of non-vitamin D steroids and bioactive lipids with 25-OHD3 for binding: competitively displaces [^3 H]25-OHD3
CCCCC[C@H](O)/C=C/[C@@H]1[C@@H](C/C=C\CCCC(=O)O)[C@@H](O)C[C@H]1O [PGF2alpha] | 0 | –
CC(=O)[C@H]1CC[C@H]2[C@@H]3CCC4=CC(=O)CC[C@]4(C)[C@H]3CC[C@]12C [Progesterone] | 19 | competition of non-vitamin D steroids and bioactive lipids with 25-OHD3 for binding: competitively displaces [^3 H]25-OHD3
CC(=O)[C@H]1CC[C@H]2[C@@H]3CC=C4C[C@@H](O)CC[C@]4(C)[C@H]3CC[C@]12C [Pregnenolone] | 0 | –
C=C1CC[C@H](O)C/C1=C/C=C1\CCC[C@]2(C)[C@@H]([C@H](C)CCC(O)C(C)(C)O)CC[C@@H]12 (stereo partly shown) [24,25-(OH)2D3] | 72 | ability to competitively displace [3H]25-OHD3 binding (FIG. 1A): roughly equivalent in their ability to competitively inhibit
Androstendiol | 0 | –
CCCCC[C@H](O)/C=C/[C@H]1[C@H](O)CC(=O)[C@@H]1C/C=C\CCCC(=O)O [PGE2] | 0 | –
C[C@@H]1C[C@H]2[C@@H]3CCC4=CC(=O)C=C[C@]4(C)[C@@]3(F)[C@@H](O)C[C@]2(C)[C@@]1(O)C(=O)CO [Dexamethasone] | 0 | –
C[C@]12CCC(=O)C=C1CC[C@@H]1[C@@H]2[C@@H](O)C[C@@]2(C)[C@H]1CC[C@]2(O)C(=O)CO [Hydrocortisone] | 0 | –

Compound | RBI (Relative Binding Index) | also measured
C=C1/C(=C\C=C2/CCC[C@]3(C)[C@@H]([C@H](C)/C=C/[C@H](C)C(C)(C)O)CC[C@@H]23)C[C@@H](O)C[C@@H]1O [1,25-(OH)2D2, 1,25-dihydroxyvitamin D2] | 35 | binding / displacement of [3H]25-OHD3 by vitamin D2 metabolites and synthetic analogues (FIG. 2B): bound in unfractionated extracts equivalently to 25-OHD3 and 1,25-(OH)^2 D3
C=C1CC[C@H](O)C/C1=C/C=C1\CCC[C@]2(C)[C@@H]([C@H](C)CCCC(C)C)CC[C@@H]12 [Vltamin D3, cholecalciferol] | 0 | ability to competitively displace [3H]25-OHD3 binding (FIG. 1A): ineffective as a competitive ligand
CC/C(=C(\c1ccccc1)c1ccc(OCCN(C)C)cc1)c1ccccc1 [Tamoxifen] | 0 | –
C=C1CC[C@H](O)C/C1=C/C=C1\CCC[C@]2(C)[C@@H]([C@H](C)/C=C/[C@H](C)C(C)(C)O)CC[C@@H]12 [25-OHD2, 25-hydroxy vitamin D2] | 100 | binding / displacement of [3H]25-OHD3 by vitamin D2 metabolites and synthetic analogues (FIG. 2B): bound in unfractionated extracts equivalently to 25-OHD3 and 1,25-(OH)^2 D3
C[C@]12CCC(=O)C=C1CC[C@@H]1[C@@H]2C(=O)C[C@@]2(C)[C@H]1CC[C@]2(O)C(=O)CO [Cortisone] | 0 | –
C[C@]12CCC(=O)C=C1CC[C@@H]1[C@@H]2CC[C@]2(C)C(=O)CC[C@@H]12 [Androstendione] | 0 | –
C[C@]12CCC(=O)C=C1CC[C@@H]1[C@@H]2[C@@H](O)C[C@]2(C=O)[C@@H](C(=O)CO)CC[C@@H]12 [Aldosterone] | 0 | –
C=C1CC[C@H](O)C/C1=C/C=C1\CCC[C@]2(C)[C@@H]([C@H](C)/C=C/[C@H](C)C(C)C)CC[C@@H]12 [Vitamin D2, ergocalciferol] | 0 | –
C[C@]12CC[C@H](OS(=O)(=O)O)CC1=CC[C@@H]1[C@@H]2CC[C@]2(C)C(=O)CC[C@@H]12 [DHEAS] | 0 | –
CC(C)CCC[C@@H](C)[C@H]1CC[C@H]2C3=CC=C4C[C@@H](O)CC[C@]4(C)[C@H]3CC[C@]12C [7-Dehydrocholesterol] | 0 | –
C[C@H](CCCC(C)(C)O)[C@H]1CC[C@H]2[C@@H]3CC=C4C[C@@H](O)CC[C@]4(C)[C@H]3CC[C@]12C [25-Hydroxycholesterol] | 0 | competition of non-vitamin D steroids and bioactive lipids with 25-OHD3 for binding: none of these evaluated compounds were able to compete with 25-OHD3 for binding
C=C1/C(=C\C=C2/CCC[C@]3(C)[C@@H]([C@H](C)/C=C/C=C/C(O)(CC)CC)CC[C@@H]23)C[C@@H](O)C[C@@H]1O [EB1089] | 0 | binding / displacement of [3H]25-OHD3 by vitamin D2 metabolites and synthetic analogues (FIG. 2B): none of the C-1-hydroxylated nonhypercalcemic analogues MC903, EB1089 and KH1060 (FIG. 2A) were able to displace [^3 H]25-OHD3 binding
CCCCC/C=C\C/C=C\C/C=C\C/C=C\CCCC(=O)O [Arachidonic acid] | 0 | –
CC1=C(/C=C/C(C)=C\C=C\C(C)=C\C(=O)O)C(C)(C)CCC1 [9-cis Retinoic acid] | 0 | –
C=C1/C(=C\C=C2/CCC[C@]3(C)[C@@H]([C@H](C)/C=C/[C@@H](O)C4CC4)CC[C@@H]23)C[C@@H](O)C[C@@H]1O [Calcipotriol (MC903), Calcipotriol] | 0 | binding / displacement of [3H]25-OHD3 by vitamin D2 metabolites and synthetic analogues (FIG. 2B): none of the C-1-hydroxylated nonhypercalcemic analogues MC903, EB1089 and KH1060 (FIG. 2A) were able to displace [^3 H]25-OHD3 binding
CC(C)[C@@H](C)/C=C/[C@@H](C)[C@H]1CC[C@H]2/C(=C/C=C3\C[C@@H](O)CC[C@@H]3C)CCC[C@]12C [Dihydrotachysterol] | 0 | ability to competitively displace [3H]25-OHD3 binding (FIG. 1A): incapable of displacing [^3 H]25-OHD3
C[C@]12CC[C@H]3[C@@H](CCC4=CC(=O)CC[C@@]43C)[C@@H]1CC[C@@H]2O [Testosterone] | 30 | competition of non-vitamin D steroids and bioactive lipids with 25-OHD3 for binding: competitively displaces [^3 H]25-OHD3
C[C@]12CC[C@H](O)CC1=CC[C@@H]1[C@@H]2CC[C@]2(C)C(=O)CC[C@@H]12 [DHEA] | 0 | –
